Source: ChEMBL document CHEMBL1139796, “Novel anti-tuberculosis agents from MCR libraries” (Bioorg Med Chem Lett, 2007)

Test system: Mycobacterium tuberculosis
Assay: Antimycobacterial activity against Mycobacterium tuberculosis at 12.5 ug/ml
Format: functional
Conditions: read-out: GI

Point of comparison: `C=CCNC(=O)C(C)(C)N(CC(C)(C)C)C(=O)c1cccnc1`, inhibition of growth at 12.5 µg/mL 71%. Against it:
- C=CCNC(=O)C(CCCCC)N(C(=O)c1cccnc1)C1CCCCC1 (stereo unspecified) — higher, 100%
- C=CCNC(=O)C(C=C)(CC)N(C(=O)c1cccnc1)C(C)c1ccccc1 (stereo unspecified) — higher, 73%
- C=CCNC(=O)C(N(CCCn1ccnc1)C(=O)c1cccnc1)C(Cl)(Cl)Cl (stereo unspecified) — lower, 61%
- C=CCNC(=O)C(CCCCC)N(CC(C)(C)C)C(=O)c1cccnc1 (stereo unspecified) — higher, 73%
- C=CCNC(=O)C1(N(CCCn2ccnc2)C(=O)c2cccnc2)CCCc2cc(OC)ccc21 (stereo unspecified) — lower, 69%
- C=CCNC(=O)C1(N(C(=O)c2cccnc2)C2CCCCC2)CCCc2cc(OC)ccc21 (stereo unspecified) — higher, 72%
- C=CCNC(=O)C(CCCC)N(CCCn1ccnc1)C(=O)c1cccnc1 (stereo unspecified) — higher, 89%
- C=CCNC(=O)C(CCCC)N(C(=O)c1cccnc1)C1CCCCC1 (stereo unspecified) — higher, 100%
- C=CCNC(=O)C(CCCC)N(CC=C)C(=O)c1cccnc1 (stereo unspecified) — higher, 100%
- C=CCNC(=O)C(CCCC)N(C(=O)c1cccnc1)C1CC1 (stereo unspecified) — higher, 96%
- C=CCNC(=O)C(C(C)C)N(C(=O)c1cccnc1)C(C)c1ccccc1 (stereo unspecified) — higher, 77%
- C=CCNC(=O)C(N(Cc1ccncc1)C(=O)c1cccnc1)C(F)(F)F (stereo unspecified) — lower, 58%
- C=CCNC(=O)C(N(CCCn1ccnc1)C(=O)c1cccnc1)C(F)(F)F (stereo unspecified) — the same, 71%
- C=CCNC(=O)C(C(C)C)N(CC(C)(C)C)C(=O)c1cccnc1 (stereo unspecified) — higher, 76%
- C=CCNC(=O)C(N(C(=O)c1cccnc1)C1CC1)C(Cl)(Cl)Cl (stereo unspecified) — lower, 9%
- C=CCNC(=O)C(N(C(=O)c1cccnc1)C1CCCCC1)C(F)(F)F (stereo unspecified) — lower, 60%
- C=CCNC(=O)C(N(CCCN1CCOCC1)C(=O)c1cccnc1)C(F)(F)F (stereo unspecified) — higher, 72%
- C=CCNC(=O)C(N(C(=O)c1cccnc1)C1CC1)C(F)(F)F (stereo unspecified) — higher, 74%
- C=CCNC(=O)C(C)(c1ccccc1)N(C(=O)c1cccnc1)C(C)c1ccccc1 (stereo unspecified) — higher, 83%
- C=CCNC(=O)C1(N(CCCn2ccnc2)C(=O)c2cccnc2)CCN(Cc2ccccc2)CC1 — lower, 46%
- C=CCNC(=O)C1(N(CC=C)C(=O)c2cccnc2)CCN(Cc2ccccc2)CC1 — higher, 94%
- C=CCNC(=O)C1(N(C(=O)c2cccnc2)C(C)c2ccccc2)CCN(Cc2ccccc2)CC1 (stereo unspecified) — lower, 54%
- C=CCNC(=O)C(C)(C)N(C(=O)c1cccnc1)C(C)c1ccccc1 (stereo unspecified) — higher, 83%
- C=CCNC(=O)C(C)(C)N(C(=O)c1cccnc1)C1CC1 — lower, 64%
- C=CCNC(=O)C(C=C)(CC)N(Cc1ccncc1)C(=O)c1cccnc1 (stereo unspecified) — lower, 23%
- C=CCNC(=O)C(C(C)C)N(CCCN1CCOCC1)C(=O)c1cccnc1 (stereo unspecified) — lower, 33%
- C=CCNC(=O)C(N(CC=C)C(=O)c1cccnc1)C(F)(F)F (stereo unspecified) — lower, 6%
- C=CCNC(=O)C(C)(c1ccccc1)N(CC(C)(C)C)C(=O)c1cccnc1 (stereo unspecified) — lower, 67%
- C=CCNC(=O)C(C)(c1ccccc1)N(C(=O)c1cccnc1)C1CC1 (stereo unspecified) — higher, 72%
- C=CCNC(=O)C1(N(Cc2ccncc2)C(=O)c2cccnc2)CCCCC1 — higher, 87%
- C=CCNC(=O)C1(N(CC(C)(C)C)C(=O)c2cccnc2)CCN(Cc2ccccc2)CC1 — lower, 28%
- C=CCNC(=O)C1(N(CCCN2CCOCC2)C(=O)c2cccnc2)CCN(Cc2ccccc2)CC1 — lower, 33%
- C=CCNC(=O)C(C)(C(C)C)N(Cc1ccncc1)C(=O)c1cccnc1 (stereo unspecified) — lower, 52%
- C=CCNC(=O)C(C)(c1ccccc1)N(C(=O)c1cccnc1)C1CCCCC1 (stereo unspecified) — lower, 57%
- C=CCNC(=O)C1(N(C(=O)c2cccnc2)C2CCCCC2)CCCCC1 — higher, 76%
- C=CCNC(=O)C1(N(CC=C)C(=O)c2cccnc2)CCCCC1 — higher, 80%
- C=CCNC(=O)C1(N(C(=O)c2cccnc2)C(C)c2ccccc2)CCCCC1 (stereo unspecified) — higher, 74%
- C=CCNC(=O)C(C)(C(C)C)N(CC=C)C(=O)c1cccnc1 (stereo unspecified) — lower, 69%
- C=CCNC(=O)C(C)(C(C)C)N(C(=O)c1cccnc1)C(C)c1ccccc1 (stereo unspecified) — higher, 83%
- C=CCNC(=O)C(C)(C)N(CC=C)C(=O)c1cccnc1 — higher, 76%
- C=CCNC(=O)C(C(C)C)N(C(=O)c1cccnc1)C1CC1 (stereo unspecified) — lower, 57%
- C=CCNC(=O)C(N(CC(C)(C)C)C(=O)c1cccnc1)C(F)(F)F (stereo unspecified) — higher, 77%
- C=CCNC(=O)C1(N(CC(C)(C)C)C(=O)c2cccnc2)CCCCC1 — higher, 99%
- C=CCNC(=O)C1(N(CCCN2CCOCC2)C(=O)c2cccnc2)CCCCC1 — lower, 49%
- C=CCNC(=O)C1(N(C(=O)c2cccnc2)C2CC2)CCCCC1 — the same, 71%
- C=CCNC(=O)C(C)(C(C)C)N(CCCN1CCOCC1)C(=O)c1cccnc1 (stereo unspecified) — lower, 64%
- C=CCNC(=O)C(C)(C)N(Cc1ccncc1)C(=O)c1cccnc1 — lower, 51%
- C=CCNC(=O)C(CCCC)N(C(=O)c1cccnc1)C(C)c1ccccc1 (stereo unspecified) — higher, 100%
- C=CCNC(=O)C(CCCCC)N(CC=C)C(=O)c1cccnc1 (stereo unspecified) — lower, 11%
- C=CCNC(=O)C(C=C)(CC)N(CCCN1CCOCC1)C(=O)c1cccnc1 (stereo unspecified) — lower, 31%
- C=CCNC(=O)C(C=C)(CC)N(C(=O)c1cccnc1)C1CCCCC1 (stereo unspecified) — higher, 84%
- C=CCNC(=O)C(N(C(=O)c1cccnc1)C1CCCCC1)C(Cl)(Cl)Cl (stereo unspecified) — higher, 74%
- C=CCNC(=O)C(CCCCC)N(CCCN1CCOCC1)C(=O)c1cccnc1 (stereo unspecified) — higher, 74%
- C=CCNC(=O)C(N(CC=C)C(=O)c1cccnc1)C(Cl)(Cl)Cl (stereo unspecified) — lower, 6%
- C=CCNC(=O)C(C(C)C)N(Cc1ccncc1)C(=O)c1cccnc1 (stereo unspecified) — lower, 50%
- C=CCNC(=O)C(C(C)C)N(CCCn1ccnc1)C(=O)c1cccnc1 (stereo unspecified) — lower, 43%
- C=CCNC(=O)C1(N(CC(C)(C)C)C(=O)c2cccnc2)CCCc2cc(OC)ccc21 (stereo unspecified) — higher, 72%
- C=CCNC(=O)C1(N(CCCN2CCOCC2)C(=O)c2cccnc2)CCCc2cc(OC)ccc21 (stereo unspecified) — lower, 64%
- C=CCNC(=O)C(N(C(=O)c1cccnc1)C(C)c1ccccc1)C(F)(F)F (stereo unspecified) — higher, 90%
- C=CCNC(=O)C(C)(c1ccccc1)N(Cc1ccncc1)C(=O)c1cccnc1 (stereo unspecified) — lower, 68%
- C=CCNC(=O)C(C)(C)N(C(=O)c1cccnc1)C1CCCCC1 — higher, 92%
- C=CCNC(=O)C(C)(c1ccccc1)N(CCCn1ccnc1)C(=O)c1cccnc1 (stereo unspecified) — the same, 71%
- C=CCNC(=O)C(C)(C)N(CCCN1CCOCC1)C(=O)c1cccnc1 — lower, 70%
- C=CCNC(=O)C(C=C)(CC)N(CCCn1ccnc1)C(=O)c1cccnc1 (stereo unspecified) — lower, 23%
- C=CCNC(=O)C(C)(c1ccccc1)N(CCCN1CCOCC1)C(=O)c1cccnc1 (stereo unspecified) — higher, 72%
- C=CCNC(=O)C(C(C)C)N(CC=C)C(=O)c1cccnc1 (stereo unspecified) — lower, 6%
- C=CCNC(=O)C1(N(CCCn2ccnc2)C(=O)c2cccnc2)CCCCC1 — lower, 43%
- C=CCNC(=O)C1(N(Cc2ccncc2)C(=O)c2cccnc2)CCN(Cc2ccccc2)CC1 — lower, 64%
- C=CCNC(=O)C(C)(C(C)C)N(CC(C)(C)C)C(=O)c1cccnc1 (stereo unspecified) — lower, 62%
- C=CCNC(=O)C(C)(C(C)C)N(C(=O)c1cccnc1)C1CC1 (stereo unspecified) — lower, 67%
- C=CCNC(=O)C(C)(c1ccccc1)N(CC=C)C(=O)c1cccnc1 (stereo unspecified) — lower, 69%
- C=CCNC(=O)C1(N(C(=O)c2cccnc2)C2CCCCC2)CCN(Cc2ccccc2)CC1 — higher, 101%
- C=CCNC(=O)C1(N(C(=O)c2cccnc2)C2CC2)CCN(Cc2ccccc2)CC1 — lower, 43%
- C=CCNC(=O)C(C)(C(C)C)N(C(=O)c1cccnc1)C1CCCCC1 (stereo unspecified) — higher, 95%
- C=CCNC(=O)C(CCCCC)N(C(=O)c1cccnc1)C1CC1 (stereo unspecified) — higher, 90%
- C=CCNC(=O)C(CCCCC)N(CCCn1ccnc1)C(=O)c1cccnc1 (stereo unspecified) — higher, 82%
- C=CCNC(=O)C(CCCCC)N(Cc1ccncc1)C(=O)c1cccnc1 (stereo unspecified) — higher, 89%
- C=CCNC(=O)C(N(C(=O)c1cccnc1)C(C)c1ccccc1)C(Cl)(Cl)Cl (stereo unspecified) — higher, 82%
- C=CCNC(=O)C1(N(CC=C)C(=O)c2cccnc2)CCCc2cc(OC)ccc21 (stereo unspecified) — higher, 80%
- C=CCNC(=O)C(C=C)(CC)N(CC=C)C(=O)c1cccnc1 (stereo unspecified) — lower, 39%
- C=CCNC(=O)C1(N(C(=O)c2cccnc2)C2CC2)CCCc2cc(OC)ccc21 (stereo unspecified) — lower, 69%
- C=CCNC(=O)C1(N(Cc2ccncc2)C(=O)c2cccnc2)CCCc2cc(OC)ccc21 (stereo unspecified) — lower, 63%
- C=CCNC(=O)C(N(CC(C)(C)C)C(=O)c1cccnc1)C(Cl)(Cl)Cl (stereo unspecified) — higher, 74%
- C=CCNC(=O)C(N(Cc1ccncc1)C(=O)c1cccnc1)C(Cl)(Cl)Cl (stereo unspecified) — lower, 49%
- C=CCNC(=O)C(C=C)(CC)N(CC(C)(C)C)C(=O)c1cccnc1 (stereo unspecified) — lower, 60%
- C=CCNC(=O)C(N(CCCN1CCOCC1)C(=O)c1cccnc1)C(Cl)(Cl)Cl (stereo unspecified) — higher, 78%
- C=CCNC(=O)C1(N(C(=O)c2cccnc2)C(C)c2ccccc2)CCCc2cc(OC)ccc21 (stereo unspecified) — higher, 82%
- C=CCNC(=O)C(C=C)(CC)N(C(=O)c1cccnc1)C1CC1 (stereo unspecified) — lower, 50%
- C=CCNC(=O)C(CCCC)N(CCCN1CCOCC1)C(=O)c1cccnc1 (stereo unspecified) — lower, 69%
- C=CCNC(=O)C(CCCCC)N(C(=O)c1cccnc1)C(C)c1ccccc1 (stereo unspecified) — higher, 95%
- C=CCNC(=O)C(CCCC)N(Cc1ccncc1)C(=O)c1cccnc1 (stereo unspecified) — higher, 96%
- C=CCNC(=O)C(CCCC)N(CC(C)(C)C)C(=O)c1cccnc1 (stereo unspecified) — higher, 102%
- C=CCNC(=O)C(C)(C(C)C)N(CCCn1ccnc1)C(=O)c1cccnc1 (stereo unspecified) — lower, 54%
- C=CCNC(=O)C(C(C)C)N(C(=O)c1cccnc1)C1CCCCC1 (stereo unspecified) — lower, 62%
- C=CCNC(=O)C(C)(C)N(CCCn1ccnc1)C(=O)c1cccnc1 — lower, 57%
